The record followed here is US7285555B2, “6-aryl-7-halo-imidazo[1,2-a]pyrimidines as anticancer agents” (Wyeth Holdings Corporation, priority 2003, dated 2007).

One data set deals with pure tubulin. Put plainly: Tubulin polymerization test procedure with pure tubulin. It counts as biochemical, bovine. Conditions: pure tubulin without added GTP. How it is done:
(§1) Medium is RPMI-1640 with L-glutamine, supplemented with 10% heat-inactivated fetal calf serum, 100 units/mL penicillin, and 100 μg/mL streptomycin (Gibco, Grand Island, N.Y.). Microtubule-associated protein (MAP)-rich tubulin, containing about 70% tubulin and 30% MAPs (#ML113), and highly purified tubulin (>99% pure, #TL238), both from bovine brain, are obtained from Cytoskeleton, Inc., Denver, Colo. PEM buffer (80 mM piperazine-N,N′-bis[2-ethanesulfonic acid], pH 6.9, 1 mM ethylene glycol-bis(β-aminoethyl ether)-N,N,N′,N′-tetraacetic acid, 1 mM magnesium chloride) and guanosine 5′-triphosphate (GTP) are also obtained from Cytoskeleton. [^3H]paclitaxel, specific activity 14.7 Ci/mmol, is purchased from Moravek Biochemicals (Brea, Calif.). [^3H]vinblastine, specific activity 9.60 Ci/mmol and MicroSpin G-50 columns are obtained from Amersham Biosciences (Piscataway, N.J.). […] Other reagents are obtained from Sigma (St. Louis, Mo.).
The procedure with pure tubulin is similar except for the following changes. […] The supernatant after centrifugation is dispensed to a ½-area 96-well plate already containing compounds. Each compound is tested in duplicate at a final concentration of 24.3 μM. The plate reader μs thermostated at 35°.

Another data set relates to MAP-rich tubulin. Put plainly: Tubulin polymerization test procedure with MAP-rich tubulin. The following applies: MAP-rich tubulin with 1 mM GTP, compound 0.3 μM, at 20 min. It counts as biochemical, bovine. How it is done: as §1
MAP-rich tubulin is dissolved in ice-cold PEM buffer containing 1 mM GTP (GPEM buffer) at a concentration of 1.3 mg/mL. The solution is centrifuged at top speed in an Eppendorf model 5415C microcentrifuge (Brinkmann Instruments, Westbury, N.Y.) for 10 min at 40 immediately before use. The tubulin solution is added to wells of a ½-area 96-well plate (Costar No. 3696, Corning, Inc., Corning, N.Y.) already containing the compounds of interest. Each compound is tested in duplicate at a final concentration of 0.3 μM in a volume of 110 μL per well. The final DMSO concentration in all wells is 0.3%. Control reactions, which receive compound solvent only, are done in quadruplicate. The plate is put in a SpectraMax Plus plate reader (Molecular Devices Corp. Sunnyvale, Calif.) thermostated at 240 and the absorbance of each well at 340 nm, a measure of the appearance of turbidity due to tubulin polymer formation, is determined every minute for 60 minutes. The absorbance at time 0 for each well is subtracted from each of the subsequent absorbance readings for that well, and then the duplicates are averaged.
In this assay, control reactions with MAP-rich tubulin show an S-shaped absorbance profile characterized by three phases: first, a lag phase during which no change in absorbance occurs; second, a polymerization phase in which absorbance increases; and third, a plateau phase in which absorbance has reached a maximum and little or no further change occurs. Polymerization enhancers such as paclitaxel and docetaxel shorten or eliminate the lag phase, increase the rate of the polymerization phase, and often increase the height of the plateau. […] This has been expressed quantitatively in Table 6 by dividing the mean A340 of each sample at 20 min by the mean A340 of the control at 20 min to give a fold enhancement over control. […]

The test system of a further data set is S1-M1 cells. Kind of data set: MTS cytotoxicity test procedure with S1-M1 cells. It counts as cell-based, human. The following applies: Homo sapiens; MTS assay, S1-M1 cells, means of 2 independent experiments. The text has this: (§2) Human cancer cell lines, unless otherwise noted, are obtained from the American Type Culture Collection (Rockville, Md.). The following drug-sensitive parental cell lines, and their derived drug-resistant counterparts, are obtained from the originators as listed: (a) S1 (parental line from a subclone of human colon carcinoma line LS174T) and derived S1-M1-3.2 (herein called S1-M1) which expresses the MXR drug transporter protein, are provided by Dr. L. Greenberger, Wyeth Research (Rabindran, S. K., He, H., Singh, M., Brown, E., Collins, K. I., Annable, T., and Greenberger, L. M. Reversal of a novel multidrug resistance mechanism in human colon carcinoma cells by fumitremorgin C. Cancer Res., 58: 5850-5858,1998); (b) parental HL-60 human promyelocytic leukemia line and derived HL-60/ADR, which expresses the MRP1 drug transporter protein, are provided by Dr. M. Center, University of Kansas (McGrath, T., and Center, M. S. Adriamycin resistance in HL60 cells in the absence of detectable P-glycoprotein. Biochem. Biophys. […] J. Biol. Chem., 261: 7762-7770, 1986) via Dr. L. Greenberger, Wyeth Research.
(§3) The MTS assay, which is sold in kit form by Promega (Madison, Wis.; CellTiter 96 AQueous Non-Radioactive Cell Proliferation Assay), is based on the conversion by viable cells, but not by dead cells, of the tetrazolium salt, MTS (3-(4,5-dimethylthiazol-2-yl)-5-(3-carboxymethoxyphenyl)-2-(4-sulphophenyl)-2H-tetrazolium, inner salt), into a water-soluble colored formazan which is detected by spectrophotometry. Compounds are tested at nine concentrations, in order to determine IC50 values. For the test procedure, cells are harvested by trypsinization (or, in the case of non-adherent cells, by simple resuspension), washed, counted and distributed to wells of 96-well flat-bottom microtiter plates at 1000 cells per well in 200 μL of medium. In addition, one row of wells on a separate plate receives cells as above (“time 0” plate). All plates are incubated at 370 in humidified 5% CO2 in air for about 24 hr.
(§4) On day 2, compounds for test are diluted and added to wells. Compounds are dissolved in DMSO at 10 mg/mL. For each compound, nine serial 2-fold dilutions are prepared in DMSO. Ten μL of each dilution in DMSO is transferred to 100 μL of medium, mixed well, and then 5 μL of this dilution is transferred in quadruplicate to wells containing cells. […] Plates are returned to the incubator for three days. At the time of drug addition to the experimental plates, the MTS assay is run on the “time 0” plate.
(§5) After three days of culture with test compounds (day 5 overall), the MTS assay is done on all wells of the experimental plates. The absorbance values of the quadruplicate sample wells are averaged and divided by the average of the “time 0” values. […]

For a further data set, the system named is HL-60/ADR cells. Put plainly: MTS cytotoxicity test procedure with HL-60/ADR cells. It counts as cell-based, human. Conditions: Homo sapiens, HL60/ADR; MTS assay, HL-60/ADR cells, means of 2 independent experiments.
Excerpt: as §2, §3, §4
After three days of culture with test compounds (day 5 overall), the MTS assay is done on all wells of the experimental plates. The absorbance values of the quadruplicate sample wells are averaged and divided by the average of the “time 0” values. […] The nine values for each compound are plotted against concentration, and the concentration that produces a relative color yield half way between the maximum and minimum is taken as the IC50 value.
HL-60/ADR cells overexpress the multidrug resistance protein MRP1 which mediates resistance to some chemotherapeutics (Gottesman, M. M., Fojo, T., and Bates, S. E. Multidrug resistance in cancer: role of ATP-dependent transporters. Nature Rev. Cancer, 2: 48-58, 2002). The IC50 values of example 6 of this invention, as well as reference compounds, on HL-60/ADR are compared to values on the sensitive parental HL-60 line.

The test system of the next data set is COLO 205 cells. Kind of data set: MTS cytotoxicity test procedure with COLO 205 cells. It counts as cell-based. Conditions: Homo sapiens, 72 h, MTS assay, three days of culture. How it is done:
as §3
On day 2, compounds for test are diluted and added to wells. Compounds are dissolved in DMSO at 10 mg/mL. For each compound, nine serial 2-fold dilutions are prepared in DMSO. Ten μL of each dilution in DMSO is transferred to 100 μL of medium, mixed well, and then 5 μL of this dilution is transferred in quadruplicate to wells containing cells. The final high concentration of each compound is typically 1-5 μM. Plates are returned to the incubator for three days. At the time of drug addition to the experimental plates, the MTS assay is run on the “time 0” plate. This gives the “time 0 MTS value” which is related to the number of viable cells per well at the time of drug addition.
After three days of culture with test compounds (day 5 overall), the MTS assay is done on all wells of the experimental plates. The absorbance values of the quadruplicate sample wells are averaged and divided by the average of the “time 0” values. The average of control wells without drug, divided by the average “time 0” value, gives the maximal relative increase in MTS color yield due to cell growth during the final three days of culture. The average of control wells with high drug concentration, divided by the “time 0” value, gives the minimal relative color yield for cells that were completely killed. The nine values for each compound are plotted against concentration, and the concentration that produces a relative color yield half way between the maximum and minimum is taken as the IC50 value.
COLO 205 is a human colon carcinoma cell line that is used for comparative testing of the examples of this invention and several reference compounds (Table 1). This line is sensitive to paclitaxel and vincristine.

A further data set relates to KB-V1 cells. Put plainly: MTS cytotoxicity test procedure with KB-V1 cells. It counts as cell-based, human. The following applies: Homo sapiens, KB-V1; MTS assay, KB VI cells, means of 2 independent experiments.
Excerpt: as §2
The MTS assay, which is sold in kit form by Promega (Madison, Wis.; CellTiter 96 AQueous Non-Radioactive Cell Proliferation Assay), is based on the conversion by viable cells, but not by dead cells, of the tetrazolium salt, MTS (3-(4,5-dimethylthiazol-2-yl)-5-(3-carboxymethoxyphenyl)-2-(4-sulphophenyl)-2H-tetrazolium, inner salt), into a water-soluble colored formazan which is detected by spectrophotometry. Compounds are tested at nine concentrations, in order to determine IC50 values. For the test procedure, cells are harvested by trypsinization (or, in the case of non-adherent cells, by simple resuspension), washed, counted and distributed to wells of 96-well flat-bottom microtiter plates at 1000 cells per well in 200 μL of medium. […]
as §5

Take `CC(=O)O[C@@]12CO[C@@H]1C[C@H](O)[C@@]1(C)C(=O)[C@H](O)C3=C(C)[C@@H](OC(=O)[C@H](O)[C@@H](NC(=O)OC(C)(C)C)c4ccccc4)C[C@@](O)([C@@H](OC(=O)c4ccccc4)[C@H]21)C3(C)C` [Docetaxel, reference compound]: the “polymerization of pure tubulin without GTP (in words)” value in the data set with pure tubulin was “able to induce polymerization”. For the same compound, the “A340 Compound / A340 Control (fold enhancement over control)” value in the data set on MAP-rich tubulin is 5.4.

For `COc1cccc2c1C(=O)c1c(O)c3c(c(O)c1C2=O)C[C@@](O)(C(=O)CO)C[C@@H]3O[C@H]1C[C@H](N)[C@H](O)[C@H](C)O1` [Doxorubicin, reference compound], the IC50 was 2520 nM in the data set on S1-M1 cells and 2080 nM with HL-60/ADR cells.

In turn, `Fc1cc(F)c(-c2c(Cl)nc3nccn3c2N2CCCCCC2)c(F)c1` [Example 1, 5-azepan-1-yl-7-chloro-6-(2,4,6-trifluorophenyl)imidazo[1,2-a]pyrimidine] displayed a melting point of 106 to 108 °C. The compound also yielded an IC50 in the data set on COLO 205 cells of 259 nM.

Turning to `Fc1cc(F)c(-c2c(Cl)nc3nccn3c2N2CCCCC2)c(F)c1` [Example 2, 7-Chloro-5-piperidin-1-yl-6-(2,4,6-trifluorophenyl)imidazo[1,2-a]pyrimidine], in the data set on COLO 205 cells, the IC50 came out at 396 nM.

Turning to `Fc1cc(F)c(-c2c(Cl)nc3nccn3c2NCC(F)(F)F)c(F)c1` [Example 3, 7-chloro-N-(2,2,2-trifluoroethyl)-6-(2,4,6-trifluorophenyl)imidazo[1,2-a]pyrimidin-5-amine], the melting point was in the range of 155 to 157 °C. For the same compound, in the data set with COLO 205 cells, the 50% inhibitory concentration (IC50) amounted to 742 nM.

Compound `Fc1cc(F)c(-c2c(Cl)nc3nccn3c2C2CCCCCC2)c(F)c1` [Example 5, 7-Chloro-5-cycloheptyl-6-(2,4,6-trifluorophenyl)imidazo[1,2-a]pyrimidine] yielded an IC50 in the data set on COLO 205 cells of 207 nM. In other words, the sub-micromolar range.

Regarding `O=C1c2c(O)ccc(O)c2C(=O)c2c(NCCNCCO)ccc(NCCNCCO)c21` [Mitoxantrone, reference compound], the IC50 was 1930 nM in the data set with KB-V1 cells and 161 nM with HL-60/ADR cells.
